Columns and labels:
rat mGlu 5a receptor = target: T1, rat mGlu 5a receptor (Rattus norvegicus, UniProt P31424); test: [Ca2+]i measurement (FLIPR) on mGlu 5a transfected EBNA cells, antagonist mode; format: cell-based; settings: rat mGlu 5a transiently transfected EBNA cells, Fluo 3-AM, tested against 10 μM glutamate as agonist
T1 construct: expressed in transfected cells; host or cells: EBNA cells (transient transfection)
Description: The pharmacological activity of all of the example compounds was tested using the following method: • cDNA encoding rat mGlu 5a receptor was transiently transfected into EBNA cells using a procedure described by E.-J. Schlaeger and K. Christensen (Transient gene expression in mammalian cells grown in serum-free suspension culture; Cytotechnology, 30: 71-83,1999). [Ca^2+]i measurements were performed on mGlu 5a transfected EBNA cells after incubation of the cells with Fluo 3-AM (obtainable by FLUKA, 0.5 μM final concentration) for 1 hour at 37° C. followed by 4 washes with assay buffer (DMEM supplemented with Hank's salt and 20 mM HEPES. [Ca^2+]i measurements were done using a fluorometric imaging plate reader (FLIPR, Molecular Devices Corporation, La Jolla, Calif., USA). When compounds were evaluated as antagonists they were tested against 10 μM glutamate as agonist.
The inhibition (antagonists) curves were fitted with a four parameter logistic equation giving IC50, and Hill coefficient using the iterative non linear curve fitting software Origin (Microcal Software Inc., Northampton, Mass., USA).

T1 sequence (P31424 21-1171 isoform P31424-2 limits assumed): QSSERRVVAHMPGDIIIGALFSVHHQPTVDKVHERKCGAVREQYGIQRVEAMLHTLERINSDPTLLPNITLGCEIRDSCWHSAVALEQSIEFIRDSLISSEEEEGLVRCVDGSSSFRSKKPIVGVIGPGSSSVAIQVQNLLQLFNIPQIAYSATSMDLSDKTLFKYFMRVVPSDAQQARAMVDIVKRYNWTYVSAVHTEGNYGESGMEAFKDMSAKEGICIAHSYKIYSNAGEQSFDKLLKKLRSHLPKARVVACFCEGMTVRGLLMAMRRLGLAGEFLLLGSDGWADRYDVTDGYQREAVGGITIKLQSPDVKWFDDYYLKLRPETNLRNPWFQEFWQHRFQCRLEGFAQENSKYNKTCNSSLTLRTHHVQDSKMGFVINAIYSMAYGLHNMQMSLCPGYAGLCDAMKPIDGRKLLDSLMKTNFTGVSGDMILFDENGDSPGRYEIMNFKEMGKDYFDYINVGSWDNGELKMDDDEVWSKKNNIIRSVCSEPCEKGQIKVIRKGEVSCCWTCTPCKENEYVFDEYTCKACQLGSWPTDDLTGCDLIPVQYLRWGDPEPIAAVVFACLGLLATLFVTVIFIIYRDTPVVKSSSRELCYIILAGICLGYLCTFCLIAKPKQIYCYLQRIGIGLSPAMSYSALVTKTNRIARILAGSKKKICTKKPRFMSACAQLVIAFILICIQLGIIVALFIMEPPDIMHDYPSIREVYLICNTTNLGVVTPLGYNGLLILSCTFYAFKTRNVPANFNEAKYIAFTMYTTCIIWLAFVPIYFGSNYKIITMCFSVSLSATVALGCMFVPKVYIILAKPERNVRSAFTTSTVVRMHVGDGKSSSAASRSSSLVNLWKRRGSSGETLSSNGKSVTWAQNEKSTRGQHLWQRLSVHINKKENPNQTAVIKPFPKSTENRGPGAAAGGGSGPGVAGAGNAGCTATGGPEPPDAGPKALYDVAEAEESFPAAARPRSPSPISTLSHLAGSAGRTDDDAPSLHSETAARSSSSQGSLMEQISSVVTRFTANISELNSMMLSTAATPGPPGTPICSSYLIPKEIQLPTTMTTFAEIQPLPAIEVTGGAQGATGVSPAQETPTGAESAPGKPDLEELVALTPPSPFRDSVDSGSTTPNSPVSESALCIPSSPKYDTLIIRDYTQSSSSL

Structure (SMILES) | IC50 (rat mGlu 5a receptor) | melting point
CCOC(=O)c1c(C)nc(C#Cc2ccc(Cl)cc2)n1C [Example 14, 2-(4-Chloro-phenylethynyl)-3,5-dimethyl-3H-imidazole-4-carboxylic acid ethyl ester] | < 10000 nM | 
Cc1cc(C#Cc2ccccc2)n(C)n1 [Example 31, 1,3-Dimethyl-5-phenylethynyl-1H-pyrazole] | 5000 to 10000 nM | 
Cn1ccnc1C#Cc1ccccc1 [Example 4, 1-Methyl-2-phenylethynyl-1H-imidazole] | 720 nM | 
CCOC(=O)c1c(C)nc(C#Cc2ccc(F)cc2)n1C [Example 15, 2-(4-Fluoro-phenylethynyl)-3,5-dimethyl-3H-imidazole-4-carboxylic acid ethyl ester] | 250 nM | 
CC(C)c1nc(C=Cc2ccc(Cl)cc2)n(C)c1C(C)C [Example 34, 2-[2-(4-Chloro-phenyl)-vinyl]-4,5-diisopropyl-1-methyl-1H-imidazole] | 5000 to 10000 nM | 
CCOC(=O)c1c(C)nc(C#Cc2ccc(-c3ccccc3)cc2)n1C [Example 16, 2-Biphenyl-4-ylethynyl-3,5-dimethyl-3H-imidazole-4-carboxylic acid ethyl ester] | 210 nM | 
C(#Cc1c[nH]cn1)c1ccccc1 [Example 28, 4-Phenylethynyl-1H-imidazole] | 3360 nM | 
CC(C)c1nc(C=Cc2ccccc2)n(C)c1C(C)C [Example 32, 4,5-Diisopropyl-1-methyl-2-styryl-1H-imidazole] | 1820 nM | 
COc1cc(C)c(C=Cc2nc(C(C)C)c(C(C)C)n2C)c(C)c1C [Example 36, 4,5-Diisopropyl-2-[2-(4-methoxy-2,3,6-trimethyl-phenyl)-vinyl]-1-methyl-1H-imidazole] | 5000 to 10000 nM | 
CCOC(=O)c1[nH]c(C#Cc2ccccc2)nc1C [Example 2, 5-Methyl-2-phenylethynyl-3H-imidazole-4-carboxylic acid ethyl ester] | 2400 nM | 
Cn1cnc(Br)c1C=Cc1ccccc1 [Example 43, 4-Bromo-1-methyl-5-styryl-1H-imidazole] | 3060 nM | 
Cn1cnc(C#Cc2ccccc2)c1C=O [Example 27, 3-Methyl-5-phenylethynyl-3H-imidazole-4-carbaldehyde] | 1790 nM | 
Cn1cncc1C=Cc1ccccc1 [Example 44, 1-Methyl-5-styryl-1H-imidazole] | 8000 nM | 
Cc1ccc(C=Cc2nc(C(C)C)c(C(C)C)n2C)cc1 [Example 42, 4,5-Diisopropyl-1-methyl-2-(2-p-tolyl-vinyl)-1H-imidazole] | 3250 nM | 
CCOC(=O)c1c(C)nc(C#Cc2cccc(-n3c(C)ccc3C)c2)n1C [Example 11] | 180 nM | 
CCOC(=O)Cn1c(C#Cc2ccccc2)nc(Cl)c1Cl [Example 21, (4,5-Dichloro-2-phenylethynyl-imidazol-1-yl)-acetic acid ethyl ester] | 520 nM | 
COc1ccc2[nH]c(C#Cc3ccccc3)c(CCNC(C)=O)c2c1 [Example 23, N-[2-(5-Methoxy-2-phenylethynyl-1H-indol-3-yl)-ethyl]-acetamide] | 580 nM | 
O=[N+]([O-])c1cnc(C#Cc2ccccc2)n1CCO [Example 5, 2-(5-Nitro-2-phenylethynyl-imidazol-1-yl)-ethanol] | 2110 nM | 
C(#Cc1ncn2c1CSc1ncccc1-2)c1ccccc1 [Example 24, 3-Phenylethynyl-4H-5-thia-2,6,9b-triaza-cyclopenta[a]naphthalene] | 150 nM | 

Structure (SMILES) | IC50 (rat mGlu 5a receptor) | melting point
Cc1nc(C#Cc2ccccc2)c([N+](=O)[O-])n1C [Example 30, 1,2-Dimethyl-5-nitro-4-phenylethynyl-1H-imidazole] | 20 nM | 
Cn1ccnc1C#Cc1ccccc1F [Example 18, 2-(2-Fluoro-phenylethynyl)-1-methyl-1H-imidazole] | 70 nM | 
Cn1cnc(C#Cc2ccccc2)c1 [Example 29, 1-Methyl-4-phenylethynyl-1H-imidazole] | 500 nM | 
CCOC(=O)c1c(C)nc(C#Cc2cccc(OC)c2)n1C [Example 3, 2-(3-Methoxy-phenylethynyl)-3,5-dimethyl-3H-imidazole-4-carboxylic acid ethyl ester] | 350 nM | 
CCOC(=O)c1c(C)nc(C#Cc2ccc(N)cc2)n1C [Example 19, 2-(4-Amino-phenylethynyl)-3,5-dimethyl-3H-imidazole-4-carboxylic acid ethyl ester] | 1530 nM | 
CCOC(=O)c1c(C)nc(C#Cc2ccccc2)n1C [Example 1, 3,5-Dimethyl-2-phenylethynyl-3H-imidazole-4-carboxylic acid ethyl ester] | 250 nM | 
C(#Cc1ncc[nH]1)c1ccccc1 [Example 6, 2-Phenylethynyl-1H-imidazole] | 200 nM | 
Cc1nc(C#Cc2ccccc2)n(C)c1-c1nc(C2CC2)no1 [Example 13, 3-Cyclopropyl-5-(3,5-dimethyl-2-phenylethynyl-3H-imidazol-4-yl)-[1,2,4]oxadiazole] |  | 120 °C
CCCCOc1ccc(C=Cc2nc(C(C)C)c(C(C)C)n2C)cc1 [Example 35, 2-[2-(4-Butoxy-phenyl)-vinyl]-4,5-diisopropyl-1-methyl-1H-imidazole] | 5000 to 10000 nM | 
Cn1cncc1C#Cc1ccccc1 [Example 22, 1-Methyl-5-phenylethynyl-1H-imidazole] | 220 nM | 
CCOC(=O)c1c(C)nc(C#Cc2cccc(C)c2)n1C [Example 9, 3,5-dimethyl-2-m-tolylethynyl-3H-imidazole-4-carboxylic acid ethyl ester] | 130 nM | 
CCOC(=O)c1c(C)nc(C#Cc2cccc(NC(C)=O)c2)n1C [Example 10, 2-(3-Acetylamino-phenylethynyl)-3,5-dimethyl-3H-imidazole-4-carboxylic acid ethyl ester] | 2120 nM | 
COc1ccc(C=Cc2nc(C(C)C)c(C(C)C)n2C)cc1 [Example 37, 4,5-diisopropyl-2-[2-(4-methoxy-phenyl)-vinyl]-1-methyl-1H-imidazole] | 5000 to 10000 nM | 
CCOC(=O)c1c(C)nc(C#Cc2ccccc2F)n1C [Example 17, 2-(2-Fluoro-phenylethynyl)-3,5-dimethyl-3H-imidazole-4-carboxylic acid ethyl ester] | 90 nM | 
CCOC(=O)c1nc(C#Cc2ccccc2)n(-c2ccccc2)c1C [Example 8, 5-Methyl-1-phenyl-2-phenylethynyl-1H-imidazole-4-carboxylic acid ethyl ester] | < 10000 nM | 
CC(C)c1nc(C=Cc2ccc(F)cc2)n(C)c1C(C)C [Example 33, 2-[2-(4-Fluoro-phenyl)-vinyl]-4,5-diisopropyl-1-methyl-1H-imidazole] | 5000 to 10000 nM | 
Cc1noc(-c2c(C)nc(C#Cc3ccccc3)n2C)n1 [Example 12, 5-(3,5-Dimethyl-2-phenylethynyl-3H-imidazol-4-yl)-3-methyl-[1,2,4]oxadiazole] | 11 nM | 137 °C
Cc1nc(C#Cc2ccccc2)c([N+](=O)[O-])n1CC(O)CCl (stereo not drawn) [Example 26, 1-Chloro-3-(2-methyl-5-nitro-4-phenylethynyl-imidazol-1-yl)-propan-2-ol] | 230 nM | 
Cn1ccnc1C#Cc1ccccc1Cl [Example 20, 2-(2-Chloro-phenylethynyl)-1-methyl-1H-imidazole] | 1100 nM | 
